Experimental data reported in ChEMBL document CHEMBL1201862, “PubChem BioAssay data set” (2004).
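Test compounds were applied to cells in 96-well plates for 48 hours at 5 doses. At the GI50, growth is halved.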 The source made the active and inactive calls. Rule as the data show it: active = GI50 up to about 1.1 µM and inactive = higher.

How the values were obtained:
Experiment in all cases: DTP human tumour cell line panel, 48 h
[1] = tested on: 786-0
[2] = tested on: A498
[3] = tested on: A549
[4] = tested on: ACHN
[5] = tested on: CAKI-1
[6] = tested on: DU-145
[7] = tested on: HCT-116
[8] = tested on: HOP-62
[9] = tested on: IGROV-1
[10] = tested on: M14
[11] = tested on: NCI-H226
[12] = tested on: NCI-H23
[13] = tested on: NCI-H460
[14] = tested on: OVCAR-5
[15] = tested on: RXF 393
[16] = tested on: SN12C
[17] = tested on: UACC-257
[18] = tested on: UO-31
[19] = tested on: SK-MEL-2

Measured: GI50

COC(=O)c1cccc(C)c1C1CN=NC12Cc1c(ccc(C)c1C)C2=O (configuration not stated)
inactive: [1] 46.2 µM | [2] 58.1 µM | [3] 40.6 µM | [4] 34.4 µM | [5] 91.2 µM | [6] 64.1 µM | [7] 22.5 µM | [8] 51.6 µM | [9] 76.4 µM | [10] 45.3 µM | [11] 81.8 µM | [12] 64.1 µM | [13] 47.6 µM | [14] > 100 µM | [15] 19.2 µM | [16] 13.6 µM | [17] > 100 µM | [18] > 100 µM

O=c1c(-c2c(-c3ccccc3)oc3ccc(Cl)cc3c2=O)c(-c2ccccc2)oc2ccc(Cl)cc12
inactive: [1] > 100 µM | [2] > 100 µM | [4] > 75.9 µM | [5] > 100 µM | [6] > 100 µM | [7] > 78.3 µM | [8] > 39.7 µM | [9] > 56.2 µM | [10] > 100 µM | [11] > 100 µM | [12] > 100 µM | [13] > 94.8 µM | [14] > 100 µM | [15] > 100 µM | [19] > 100 µM | [16] > 100 µM | [17] > 100 µM

O=C1O/C(=C\c2ccc(O)c(Br)c2)C(c2ccc(O)cc2)=C1Cl
inactive: [1] 42 µM | [2] 25.3 µM | [3] 36.1 µM | [4] 49.9 µM | [5] 37 µM | [6] 61.1 µM | [7] 34.1 µM | [8] 46.7 µM | [9] 55.6 µM | [10] 36.1 µM | [12] 22.4 µM | [13] 26.6 µM | [14] 51.3 µM | [15] 29.9 µM | [19] 40.1 µM | [17] 42.7 µM | [18] 48.2 µM

CN(C)CCCNC(=O)CNC(=O)c1cc(NC(=O)c2cc(NC(=O)c3cc(NC(=O)CCNC(=O)c4cc(NC(=O)c5cc(NC(=O)c6nccn6C)cn5C)cn4C)cn3C)cn2C)cn1C
inactive: [1] > 100 µM | [2] > 100 µM | [3] > 100 µM | [4] > 100 µM | [5] > 100 µM | [6] > 100 µM | [7] > 100 µM | [8] > 100 µM | [9] > 100 µM | [10] > 100 µM | [11] > 100 µM | [12] > 100 µM | [13] > 100 µM | [14] > 100 µM | [19] > 100 µM | [16] > 100 µM | [17] > 100 µM | [18] > 100 µM

N=C/N=C/C(=S)O[C@@H]1C(=O)N2CCC[C@@]23CCCC[C@@H]13
inactive: [1] > 12.5 µM | [2] > 12.5 µM | [3] > 12.5 µM | [4] > 12.5 µM | [5] > 12.5 µM | [6] > 12.5 µM | [7] > 12.5 µM | [8] > 12.5 µM | [9] > 12.5 µM | [10] > 12.5 µM | [11] > 12.5 µM | [12] > 12.5 µM | [13] > 12.5 µM | [14] > 12.5 µM | [15] > 12.5 µM | [19] > 12.5 µM | [16] > 12.5 µM | [17] > 12.5 µM | [18] > 12.5 µM

COC(=O)C(CCS(=O)(=O)CC(=O)C(=O)Nc1cccc(C(C)=O)c1)C(=O)OC
inactive: [1] > 100 µM | [2] > 100 µM | [3] > 100 µM | [4] > 100 µM | [5] > 100 µM | [7] > 56.6 µM | [8] > 100 µM | [9] > 100 µM | [10] > 100 µM | [11] > 100 µM | [12] > 100 µM | [13] > 53 µM | [14] > 100 µM | [15] > 100 µM | [19] > 100 µM | [16] > 100 µM | [17] > 100 µM | [18] > 100 µM

CCOc1ccc(NC(=O)CC#N)cc1
inactive: [1] > 100 µM | [2] > 100 µM | [3] > 100 µM | [4] > 100 µM | [5] > 100 µM | [7] > 100 µM | [8] > 100 µM | [9] > 100 µM | [10] > 100 µM | [11] > 100 µM | [12] > 100 µM | [13] > 100 µM | [14] > 100 µM | [15] > 100 µM | [19] > 100 µM | [16] > 100 µM | [17] > 100 µM | [18] > 100 µM

Cc1cn(C2CC(COCc3ccccc3)N(CCO[Si](C)(C)C(C)(C)C)O2)c(=O)[nH]c1=O (configuration not stated)
inactive: [1] 27.9 µM | [2] 15.2 µM | [3] 15.1 µM | [4] 14.9 µM | [5] 18.5 µM | [6] 15.8 µM | [7] 16.8 µM | [8] 17.3 µM | [10] 15 µM | [12] 16.2 µM | [13] 18.5 µM | [14] 17.7 µM | [15] 15.5 µM | [19] 16.4 µM | [16] 11 µM | [18] 13.8 µM

C[C@@H]1OCC(O)C([C@H]2OC(c3ccccc3)=N[C@H]2CO)O1 (some centres not stated)
inactive: [1] > 100 µM | [2] > 100 µM | [3] > 100 µM | [4] > 100 µM | [5] > 100 µM | [6] > 100 µM | [7] > 100 µM | [8] > 100 µM | [9] > 100 µM | [10] > 100 µM | [11] > 100 µM | [12] > 100 µM | [13] > 100 µM | [14] > 100 µM | [15] > 100 µM | [19] > 100 µM | [16] > 100 µM | [17] > 100 µM | [18] > 100 µM

Cc1ccc(S(=O)(=O)N2C[C@](O)(c3ccccc3)[C@H]2C)cc1
inactive: [1] > 100 µM | [2] > 100 µM | [3] > 100 µM | [4] > 100 µM | [5] > 100 µM | [6] > 100 µM | [7] > 100 µM | [8] > 100 µM | [9] > 100 µM | [10] > 100 µM | [11] > 100 µM | [12] > 100 µM | [13] > 100 µM | [14] > 100 µM | [15] > 100 µM | [19] > 100 µM | [16] > 100 µM | [17] > 100 µM | [18] > 100 µM

N#C/C(=C\c1cccc(Cl)c1Cl)c1ccccc1
inactive: [1] 37.6 µM | [2] 34.6 µM | [3] 66.8 µM | [4] 44.9 µM | [5] 40.1 µM | [7] 33 µM | [8] 37 µM | [9] 33.7 µM | [10] 74.5 µM | [11] 56.2 µM | [12] 40.8 µM | [13] 58.9 µM | [14] > 100 µM | [15] 31 µM | [19] 47.1 µM | [16] 49.1 µM | [17] > 100 µM | [18] 48.1 µM
